Reference: ChEMBL document CHEMBL1201862, “PubChem BioAssay data set” (2004)
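How tested: cells in 96-well plates exposed to compound for 48 hours at five concentrations. GI50: concentration for 50% inhibition of growth.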 Active and inactive are the calls of the source. Cut-off read from the data, not from the text of the source: active = GI50 up to about 1.1 µM and inactive = higher.

How the values were obtained:
Experiment in all cases: inhibition of tumour cell growth, NCI panel, 48 h
[1] = tested on: 786-0
[2] = tested on: A498
[3] = tested on: A549
[4] = tested on: ACHN
[5] = tested on: CAKI-1
[6] = tested on: CCRF-CEM
[7] = tested on: COLO 205
[8] = tested on: DLD-1
[9] = tested on: DMS-114
[10] = tested on: DMS-273
[11] = tested on: HCT-116
[12] = tested on: HCT-15
[13] = tested on: HL-60
[14] = tested on: HOP-18
[15] = tested on: HOP-62
[16] = tested on: HOP-92
[17] = tested on: HT-29
[18] = tested on: IGROV-1
[19] = tested on: K562
[20] = tested on: KM-20L2
[21] = tested on: KM12
[22] = tested on: LOX IMVI
[23] = tested on: LXFL 529
[24] = tested on: M14
[25] = tested on: M19-MEL
[26] = tested on: MOLT-4
[27] = tested on: Malme-3M
[28] = tested on: NCI-H226
[29] = tested on: NCI-H23
[30] = tested on: NCI-H460
[31] = tested on: NCI-H522
[32] = tested on: OVCAR-3
[33] = tested on: OVCAR-4
[34] = tested on: OVCAR-5
[35] = tested on: OVCAR-8
[36] = tested on: RPMI-8226
[37] = tested on: RXF 393
[38] = tested on: SF-268
[39] = tested on: SF-295
[40] = tested on: SF-539
[41] = tested on: SK-MEL-28
[42] = tested on: SK-MEL-2
[43] = tested on: SK-MEL-5
[44] = tested on: SK-OV-3
[45] = tested on: SN12C
[46] = tested on: SNB-75
[47] = tested on: SNB-78
[48] = tested on: SR
[49] = tested on: SW-620
[50] = tested on: TK-10
[51] = tested on: U-251
[52] = tested on: UACC-257
[53] = tested on: UACC-62
[54] = tested on: UO-31

SMILES: NNc1cnn(-c2ccccc2)c(=O)c1Cl
- GI50 [1]: > 100 µM (inactive)
- GI50 [2]: > 100 µM (inactive)
- GI50 [3]: > 100 µM (inactive)
- GI50 [4]: > 100 µM (inactive)
- GI50 [5]: > 100 µM (inactive)
- GI50 [6]: > 100 µM (inactive)
- GI50 [7]: > 100 µM (inactive)
- GI50 [8]: > 100 µM (inactive)
- GI50 [9]: > 100 µM (inactive)
- GI50 [10]: > 100 µM (inactive)
- GI50 [11]: > 100 µM (inactive)
- GI50 [12]: > 100 µM
- GI50 [13]: > 100 µM (inactive)
- GI50 [14]: > 100 µM (inactive)
- GI50 [15]: > 100 µM (inactive)
- GI50 [16]: > 100 µM (inactive)
- GI50 [17]: > 100 µM (inactive)
- GI50 [18]: > 100 µM (inactive)
- GI50 [19]: > 100 µM (inactive)
- GI50 [20]: > 100 µM (inactive)
- GI50 [21]: > 100 µM (inactive)
- GI50 [22]: > 100 µM (inactive)
- GI50 [23]: > 100 µM (inactive)
- GI50 [24]: > 100 µM (inactive)
- GI50 [25]: > 100 µM (inactive)
- GI50 [26]: > 100 µM (inactive)
- GI50 [27]: > 100 µM (inactive)
- GI50 [28]: > 100 µM (inactive)
- GI50 [29]: > 100 µM (inactive)
- GI50 [30]: > 100 µM (inactive)
- GI50 [31]: > 100 µM (inactive)
- GI50 [32]: > 100 µM (inactive)
- GI50 [33]: > 100 µM (inactive)
- GI50 [34]: > 100 µM (inactive)
- GI50 [35]: > 100 µM (inactive)
- GI50 [36]: > 100 µM (inactive)
- GI50 [37]: > 100 µM (inactive)
- GI50 [38]: > 100 µM (inactive)
- GI50 [39]: > 100 µM (inactive)
- GI50 [40]: > 100 µM (inactive)
- GI50 [41]: > 100 µM (inactive)
- GI50 [42]: > 100 µM (inactive)
- GI50 [43]: > 100 µM (inactive)
- GI50 [44]: > 100 µM (inactive)
- GI50 [45]: > 100 µM (inactive)
- GI50 [46]: > 100 µM (inactive)
- GI50 [47]: > 100 µM (inactive)
- GI50 [48]: > 100 µM (inactive)
- GI50 [49]: > 100 µM (inactive)
- GI50 [50]: > 100 µM (inactive)
- GI50 [51]: > 100 µM (inactive)
- GI50 [52]: > 100 µM (inactive)
- GI50 [53]: > 100 µM (inactive)
- GI50 [54]: > 100 µM (inactive)

SMILES: CC(=O)Nc1ccc(-c2nnc(SCC(=O)Nc3cccc([N+](=O)[O-])c3)o2)cc1
- GI50 [1]: 17.6 µM (inactive)
- GI50 [3]: 17.5 µM (inactive)
- GI50 [4]: 15.4 µM (inactive)
- GI50 [5]: 13.7 µM (inactive)
- GI50 [6]: 9.1 µM (inactive)
- GI50 [7]: 19 µM (inactive)
- GI50 [8]: 12.8 µM (inactive)
- GI50 [9]: 10.2 µM (inactive)
- GI50 [10]: 10.9 µM (inactive)
- GI50 [11]: 14 µM (inactive)
- GI50 [12]: 15.4 µM
- GI50 [13]: 10.6 µM (inactive)
- GI50 [14]: 21.1 µM (inactive)
- GI50 [15]: 22.9 µM (inactive)
- GI50 [16]: 17.1 µM (inactive)
- GI50 [17]: 16.1 µM (inactive)
- GI50 [18]: 4.11 µM (inactive)
- GI50 [19]: 10.3 µM (inactive)
- GI50 [20]: 17.8 µM (inactive)
- GI50 [21]: 17.3 µM (inactive)
- GI50 [22]: 8.77 µM (inactive)
- GI50 [23]: 2.99 µM (inactive)
- GI50 [24]: 16.1 µM (inactive)
- GI50 [25]: 15.1 µM (inactive)
- GI50 [26]: 4.39 µM (inactive)
- GI50 [27]: 11.6 µM (inactive)
- GI50 [28]: 10.8 µM (inactive)
- GI50 [29]: 5.13 µM (inactive)
- GI50 [30]: 14.5 µM (inactive)
- GI50 [31]: 10.1 µM (inactive)
- GI50 [32]: 13.5 µM (inactive)
- GI50 [33]: 11.6 µM (inactive)
- GI50 [34]: 23.9 µM (inactive)
- GI50 [35]: 16.2 µM (inactive)
- GI50 [36]: 20.7 µM (inactive)
- GI50 [37]: 12.2 µM (inactive)
- GI50 [38]: 16.1 µM (inactive)
- GI50 [39]: 16.8 µM (inactive)
- GI50 [40]: 15.8 µM (inactive)
- GI50 [41]: 16.5 µM (inactive)
- GI50 [42]: 18.3 µM (inactive)
- GI50 [43]: 14 µM (inactive)
- GI50 [44]: 11.1 µM (inactive)
- GI50 [45]: 16.1 µM (inactive)
- GI50 [46]: 17.8 µM (inactive)
- GI50 [47]: 18 µM (inactive)
- GI50 [48]: 2.87 µM (inactive)
- GI50 [49]: 13.4 µM (inactive)
- GI50 [50]: 23.6 µM (inactive)
- GI50 [51]: 14.6 µM (inactive)
- GI50 [52]: 17.3 µM (inactive)
- GI50 [53]: 11.5 µM (inactive)
- GI50 [54]: 13.2 µM (inactive)
